Columns and labels:
Assay type in all cases: biochemical
[1] = target: human JAK1 (a.a. 837-1142) (Homo sapiens, UniProt P23458); test: In vitro JAK kinase assay (HTRF, phosphorylation of a biotinylated peptide), JAK1; conditions: measured at 1 mM ATP
Procedure, shortened: (§1)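 Phosphorylation of a biotinylated peptide by purified His-tagged JAK catalytic domains (insect-cell baculovirus expression) ran 1 hr at room temperature. After stopping with EDTA, Eu-Py20 and SA-APC were bound for 40 minutes and HTRF measured.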

[2] = target: human JAK1 (a.a. 837-1142); test: as above; conditions: ratio of JAK2 IC50 to JAK1 IC50, measured at 1 mM ATP
Procedure, shortened: as §1

Jak2 (a.a. 828-1132) = Jak2 (a.a. 828-1132) (Homo sapiens (Human), UniProt O60674); test: In vitro JAK kinase assay (HTRF, phosphorylation of a biotinylated peptide), JAK2; conditions: measured at 1 mM ATP
Sequence of Jak2 (a.a. 828-1132) (O60674 828-1132): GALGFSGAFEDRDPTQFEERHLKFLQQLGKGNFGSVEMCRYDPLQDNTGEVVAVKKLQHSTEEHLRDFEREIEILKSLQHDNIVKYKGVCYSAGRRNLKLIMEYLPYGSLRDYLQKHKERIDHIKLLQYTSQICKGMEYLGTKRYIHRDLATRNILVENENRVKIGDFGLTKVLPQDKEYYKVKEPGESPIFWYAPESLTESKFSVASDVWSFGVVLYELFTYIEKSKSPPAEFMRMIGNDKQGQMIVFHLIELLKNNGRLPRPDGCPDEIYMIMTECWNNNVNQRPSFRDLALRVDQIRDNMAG
Procedure, shortened: as §1

Row | IC50 [1] [nM] | IC50 Ratio JAK2/JAK1 [2] | IC50 (Jak2 (a.a. 828-1132)) [nM] | SMILES
1 | 20 to 30 | 6.6 | > 100 | N#CCC1(n2cc(-c3ccnc4[nH]ccc34)cn2)CN(C2CCN(C(=O)c3ccnc(C(F)(F)F)n3)CC2)C1 [Example 299, [3-[4-(1H-pyrrolo[2,3-b]pyridin-4-yl)-1H-pyrazol-1-yl]-1-(1-{[2-(trifluoromethyl)pyrimidin-4-yl]carbonyl}piperidin-4-yl)azetidin-3-yl]acetonitrile]
2 | ≤ 5 | 5.4 | 10 to 50 | Cc1ccsc1C(=O)N1CCC(N2CC(CC#N)(n3cc(-c4ncnc5[nH]ccc45)cn3)C2)CC1 [Example 78, {1-{1-[(3-methyl-2-thienyl)carbonyl]piperidin-4-yl}-3-[4-(7H-pyrrolo[2,3-d]pyrimidin-4-yl)-1H-pyrazol-1-yl]azetidin-3-yl}acetonitrile]
3 | 5 to 20 | 7.2 | > 100 | N#CCC1(n2cc(-c3ncnc4[nH]ccc34)cn2)CN(C2CCN(C(=O)C3CCC(c4ccc(Cl)cc4)CC3)CC2)C1 (stereo not drawn) [Example 105, {1-(1-{[4-(4-chlorophenyl)cyclohexyl]carbonyl}piperidin-4-yl)-3-[4-(7H-pyrrolo[2,3-d]pyrimidin-4-yl)-1H-pyrazol-1-yl]azetidin-3-yl}acetonitrile]
4 | 5 to 20 | 2.7 | 10 to 50 | N#CCC1(n2ccc(-c3ncnc4[nH]ccc34)c2)CN(C2CCN(C(=O)c3cnc(C(F)(F)F)cn3)CC2)C1 [Example 347, [3-[3-(7H-Pyrrolo[2,3-d]pyrimidin-4-yl)-1H-pyrrol-1-yl]-1-(1-{[5-(trifluoromethyl)pyrazin-2-yl]carbonyl}piperidin-4-yl)azetidin-3-yl]acetonitrile]
5 | ≤ 5 | 4.9 | ≤ 10 | Cn1ccc(S(=O)(=O)N2CCC(N3CC(CC#N)(n4cc(-c5ncnc6[nH]ccc56)cn4)C3)CC2)n1 [Example 251, {1-{1-[(1-methyl-1H-pyrazol-3-yl)sulfonyl]piperidin-4-yl}-3-[4-(7H-pyrrolo[2,3-d]pyrimidin-4-yl)-1H-pyrazol-1-yl]azetidin-3-yl}acetonitrile]
6 | ≤ 5 | 4.2 | ≤ 10 | N#CCC1(n2cc(-c3ncnc4[nH]ccc34)cn2)CN(C2CCN(C(=O)c3cccc(Br)c3)CC2)C1 [Example 20, {1-[1-(3-bromobenzoyl)piperidin-4-yl]-3-[4-(7H-pyrrolo[2,3-d]pyrimidin-4-yl)-1H-pyrazol-1-yl]azetidin-3-yl}acetonitrile]
7 | 20 to 30 | 2.8 | 50 to 100 | N#CCC1(n2cc(-c3ccnc4[nH]ccc34)cn2)CN(C2CCN(C(=O)c3cc(C(F)(F)F)ncc3Cl)CC2)C1 [Example 298, {1-{1-[5-chloro-2-(trifluoromethyl)isonicotinoyl]piperidin-4-yl}-3-[4-(1H-pyrrolo[2,3-b]pyridin-4-yl)-1H-pyrazol-1-yl]azetidin-3-yl}acetonitrile]
8 | ≤ 5 | 6.9 | 10 to 50 | N#CCC1(n2cc(-c3ncnc4[nH]ccc34)cn2)CN(C2CCN(C(=O)Nc3cccc(C(F)(F)F)c3F)CC2)C1 [Example 170, 4-{3-(cyanomethyl)-3-[4-(7H-pyrrolo[2,3-d]pyrimidin-4-yl)-1H-pyrazol-1-yl]azetidin-1-yl}-N-[2-fluoro-3-(trifluoromethyl)phenyl]piperidine-1-carboxamide]
9 | 20 to 30 | 2.4 | 50 to 100 | COc1nc(CN2CCC(N3CC(CC#N)(n4cc(-c5ncnc6[nH]ccc56)cn4)C3)CC2)ccc1C#N [Example 224, 6-[(4-{3-(cyanomethyl)-3-[4-(7H-pyrrolo[2,3-d]pyrimidin-4-yl)-1H-pyrazol-1-yl]azetidin-1-yl}piperidin-1-yl)methyl]-2-methoxynicotinonitrile]
10 | ≤ 5 | 8.5 | ≤ 10 | N#CCC1(n2cc(-c3ncnc4[nH]ccc34)cn2)CN(C2CCN(C(=O)Nc3cccc(Cl)c3F)CC2)C1 [Example 177, N-(3-chloro-2-fluorophenyl)-4-{3-(cyanomethyl)-3-[4-(7H-pyrrolo[2,3-d]pyrimidin-4-yl)-1H-pyrazol-1-yl]azetidin-1-yl}piperidine-1-carboxamide]
11 | ≤ 5 | 4.3 | ≤ 10 | N#CCC1(n2cc(-c3ncnc4[nH]ccc34)cn2)CN(C2CCN(Cc3cc(Cl)cc(Cl)c3)CC2)C1 [Example 210, {1-[1-(3,5-dichlorobenzyl)piperidin-4-yl]-3-[4-(7H-pyrrolo[2,3-d]pyrimidin-4-yl)-1H-pyrazol-1-yl]azetidin-3-yl}acetonitrile]
12 | ≤ 5 | 14.8 | 50 to 100 | N#CCC1(n2cc(-c3ncnc4[nH]ccc34)cn2)CN(C2CCN(C(=O)Nc3ccccc3C(F)(F)F)CC2)C1 [Example 157, 4-{3-(cyanomethyl)-3-[4-(7H-pyrrolo[2,3-d]pyrimidin-4-yl)-1H-pyrazol-1-yl]azetidin-1-yl}-N-[2-(trifluoromethyl)phenyl]piperidine-1-carboxamide]
13 | 5 to 20 | 1.3 | 10 to 50 | N#CCC1(n2cc(-c3ncnc4[nH]ccc34)cn2)CN(C2CCN(Cc3ccc(-c4conn4)cc3)CC2)C1 [Example 221, {1-{1-[4-(1,2,3-oxadiazol-4-yl)benzyl]piperidin-4-yl}-3-[4-(7H-pyrrolo[2,3-d]pyrimidin-4-yl)-1H-pyrazol-1-yl]azetidin-3-yl}acetonitrile]
14 | ≤ 5 | 1.7 | ≤ 10 | N#CCC1(n2cc(-c3ncnc4[nH]ccc34)cn2)CN(C2CCN(C(=O)c3sc4cc(F)ccc4c3Cl)CC2)C1 [Example 91, {1-{1-[(3-chloro-6-fluoro-1-benzothien-2-yl)carbonyl]piperidin-4-yl}-3-[4-(7H-pyrrolo[2,3-d]pyrimidin-4-yl)-1H-pyrazol-1-yl]azetidin-3-yl}acetonitrile]
15 | 5 to 20 | 5.3 | 10 to 50 | N#CCC1(n2cc(-c3ccnc4[nH]ccc34)cn2)CN(C2CCN(C(=O)Nc3ccccc3F)CC2)C1 [Example 309, 4-{3-(cyanomethyl)-3-[4-(1H-pyrrolo[2,3-b]pyridin-4-yl)-1H-pyrazol-1-yl]azetidin-1-yl}-N-(2-fluorophenyl)piperidine-1-carboxamide]
16 | 5 to 20 | 3.5 | 10 to 50 | Cc1ccc(NC(=O)N2CCC(N3CC(CC#N)(n4cc(-c5ncnc6[nH]ccc56)cn4)C3)CC2)c(C)n1 [Example 189, 4-{3-(cyanomethyl)-3-[4-(7H-pyrrolo[2,3-d]pyrimidin-4-yl)-1H-pyrazol-1-yl]azetidin-1-yl}-N-(2,6-dimethylpyridin-3-yl)piperidine-1-carboxamide]
17 | 5 to 20 | 10.4 | 50 to 100 | N#CCC1(n2cc(-c3ncnc4[nH]ccc34)cn2)CN(C2CCN(C(=O)Nc3cnccc3C(F)(F)F)CC2)C1 [Example 165]
18 | 5 to 20 | 8.8 | 50 to 100 | N#CCC1(n2cc(-c3ccnc4[nH]ccc34)cn2)CN(C2CCN(C(=O)Nc3ccncc3C(F)(F)F)CC2)C1 [Example 307, 4-{3-(cyanomethyl)-3-[4-(1H-pyrrolo[2,3-b]pyridin-4-yl)-1H-pyrazol-1-yl]azetidin-1-yl}-N-[3-(trifluoromethyl)pyridin-4-yl]piperidine-1-carboxamide]
19 | ≤ 5 | 0.5 | ≤ 10 | N#CCC1(n2cc(-c3ncnc4[nH]ccc34)cn2)CN(C2CCN(C(=O)c3csc4ccccc34)CC2)C1 [Example 96, {1-[1-(1-benzothien-3-ylcarbonyl)piperidin-4-yl]-3-[4-(7H-pyrrolo[2,3-d]pyrimidin-4-yl)-1H-pyrazol-1-yl]azetidin-3-yl}acetonitrile]
20 | 5 to 20 | 5.5 | 50 to 100 | N#CCC1(n2cc(-c3ncnc4[nH]ccc34)cn2)CN(C2CCN(C(=O)c3cc(C(F)(F)F)ncc3F)CC2)C1 [Example 343, {1-{1-[5-Fluoro-2-(trifluoromethyl)isonicotinoyl]piperidin-4-yl}-3-[4-(7H-pyrrolo[2,3-d]pyrimidin-4-yl)-1H-pyrazol-1-yl]azetidin-3-yl}acetonitrile]
21 | ≤ 5 | 3.2 | 10 to 50 | CS(=O)(=O)N1CCC(N2CC(CC#N)(n3ccc(-c4ncnc5[nH]ccc45)c3)C2)CC1 [Example 348, {1-[1-(Methylsulfonyl)piperidin-4-yl]-3-[3-(7H-pyrrolo[2,3-d]pyrimidin-4-yl)-1H-pyrrol-1-yl]azetidin-3-yl}acetonitrile]
22 | ≤ 5 | 4.4 | ≤ 10 | N#CCC1(n2ccc(-c3ncnc4[nH]ccc34)c2)CN(C2CCN(C(=O)c3cc(C(F)(F)F)ccc3F)CC2)C1 [Example 273, {1-{1-[2-fluoro-5-(trifluoromethyl)benzoyl]piperidin-4-yl}-3-[3-(7H-pyrrolo[2,3-d]pyrimidin-4-yl)-1H-pyrrol-1-yl]azetidin-3-yl}acetonitrile]

Row | SMILES | IC50 [1] [nM] | IC50 Ratio JAK2/JAK1 [2] | IC50 (Jak2 (a.a. 828-1132)) [nM]
23 | N#CCC1(n2cc(-c3ncnc4[nH]ccc34)cn2)CN(C2CC3CCC(C2)N3C(=O)c2ccc(C#N)c(F)c2)C1 (stereo not drawn) [Example 140, 4-[(3-{3-(cyanomethyl)-3-[4-(7H-pyrrolo[2,3-d]pyrimidin-4-yl)-1H-pyrazol-1-yl]azetidin-1-yl}-8-azabicyclo[3.2.1]oct-8-yl)carbonyl]-2-fluorobenzonitrile] | 5 to 20 | 5.4 | 10 to 50
